Patent US11166926B2 (priority 2018, dated 2021)
Converted amounts (≈) assume the structure as drawn. “And” between values parts separate entries of the source, which are not always exact repeats. Equal entries are not always repeated. Where two headings read alike, the source gives them in different places.

Tests used:
[1] = system: C. difficile; assay: microbe, parasite or virus in culture; type: cell-based
[2] = target: TcdB027 (Clostridioides difficile, UniProt A0A9R0CDJ3); type: cell-based, C. difficile
[3] = target: T1, TcdA (Clostridioides difficile, UniProt P16154); assay: cell-based; type: cell-based, C. difficile; details: for IC50: IC50 TcdA, means ± s.d.
T1 construct: made in house; host or cells: Bacillus megaterium (the general sentence on recombinant toxins)
T1 sequence (P16154 whole entry, looked up): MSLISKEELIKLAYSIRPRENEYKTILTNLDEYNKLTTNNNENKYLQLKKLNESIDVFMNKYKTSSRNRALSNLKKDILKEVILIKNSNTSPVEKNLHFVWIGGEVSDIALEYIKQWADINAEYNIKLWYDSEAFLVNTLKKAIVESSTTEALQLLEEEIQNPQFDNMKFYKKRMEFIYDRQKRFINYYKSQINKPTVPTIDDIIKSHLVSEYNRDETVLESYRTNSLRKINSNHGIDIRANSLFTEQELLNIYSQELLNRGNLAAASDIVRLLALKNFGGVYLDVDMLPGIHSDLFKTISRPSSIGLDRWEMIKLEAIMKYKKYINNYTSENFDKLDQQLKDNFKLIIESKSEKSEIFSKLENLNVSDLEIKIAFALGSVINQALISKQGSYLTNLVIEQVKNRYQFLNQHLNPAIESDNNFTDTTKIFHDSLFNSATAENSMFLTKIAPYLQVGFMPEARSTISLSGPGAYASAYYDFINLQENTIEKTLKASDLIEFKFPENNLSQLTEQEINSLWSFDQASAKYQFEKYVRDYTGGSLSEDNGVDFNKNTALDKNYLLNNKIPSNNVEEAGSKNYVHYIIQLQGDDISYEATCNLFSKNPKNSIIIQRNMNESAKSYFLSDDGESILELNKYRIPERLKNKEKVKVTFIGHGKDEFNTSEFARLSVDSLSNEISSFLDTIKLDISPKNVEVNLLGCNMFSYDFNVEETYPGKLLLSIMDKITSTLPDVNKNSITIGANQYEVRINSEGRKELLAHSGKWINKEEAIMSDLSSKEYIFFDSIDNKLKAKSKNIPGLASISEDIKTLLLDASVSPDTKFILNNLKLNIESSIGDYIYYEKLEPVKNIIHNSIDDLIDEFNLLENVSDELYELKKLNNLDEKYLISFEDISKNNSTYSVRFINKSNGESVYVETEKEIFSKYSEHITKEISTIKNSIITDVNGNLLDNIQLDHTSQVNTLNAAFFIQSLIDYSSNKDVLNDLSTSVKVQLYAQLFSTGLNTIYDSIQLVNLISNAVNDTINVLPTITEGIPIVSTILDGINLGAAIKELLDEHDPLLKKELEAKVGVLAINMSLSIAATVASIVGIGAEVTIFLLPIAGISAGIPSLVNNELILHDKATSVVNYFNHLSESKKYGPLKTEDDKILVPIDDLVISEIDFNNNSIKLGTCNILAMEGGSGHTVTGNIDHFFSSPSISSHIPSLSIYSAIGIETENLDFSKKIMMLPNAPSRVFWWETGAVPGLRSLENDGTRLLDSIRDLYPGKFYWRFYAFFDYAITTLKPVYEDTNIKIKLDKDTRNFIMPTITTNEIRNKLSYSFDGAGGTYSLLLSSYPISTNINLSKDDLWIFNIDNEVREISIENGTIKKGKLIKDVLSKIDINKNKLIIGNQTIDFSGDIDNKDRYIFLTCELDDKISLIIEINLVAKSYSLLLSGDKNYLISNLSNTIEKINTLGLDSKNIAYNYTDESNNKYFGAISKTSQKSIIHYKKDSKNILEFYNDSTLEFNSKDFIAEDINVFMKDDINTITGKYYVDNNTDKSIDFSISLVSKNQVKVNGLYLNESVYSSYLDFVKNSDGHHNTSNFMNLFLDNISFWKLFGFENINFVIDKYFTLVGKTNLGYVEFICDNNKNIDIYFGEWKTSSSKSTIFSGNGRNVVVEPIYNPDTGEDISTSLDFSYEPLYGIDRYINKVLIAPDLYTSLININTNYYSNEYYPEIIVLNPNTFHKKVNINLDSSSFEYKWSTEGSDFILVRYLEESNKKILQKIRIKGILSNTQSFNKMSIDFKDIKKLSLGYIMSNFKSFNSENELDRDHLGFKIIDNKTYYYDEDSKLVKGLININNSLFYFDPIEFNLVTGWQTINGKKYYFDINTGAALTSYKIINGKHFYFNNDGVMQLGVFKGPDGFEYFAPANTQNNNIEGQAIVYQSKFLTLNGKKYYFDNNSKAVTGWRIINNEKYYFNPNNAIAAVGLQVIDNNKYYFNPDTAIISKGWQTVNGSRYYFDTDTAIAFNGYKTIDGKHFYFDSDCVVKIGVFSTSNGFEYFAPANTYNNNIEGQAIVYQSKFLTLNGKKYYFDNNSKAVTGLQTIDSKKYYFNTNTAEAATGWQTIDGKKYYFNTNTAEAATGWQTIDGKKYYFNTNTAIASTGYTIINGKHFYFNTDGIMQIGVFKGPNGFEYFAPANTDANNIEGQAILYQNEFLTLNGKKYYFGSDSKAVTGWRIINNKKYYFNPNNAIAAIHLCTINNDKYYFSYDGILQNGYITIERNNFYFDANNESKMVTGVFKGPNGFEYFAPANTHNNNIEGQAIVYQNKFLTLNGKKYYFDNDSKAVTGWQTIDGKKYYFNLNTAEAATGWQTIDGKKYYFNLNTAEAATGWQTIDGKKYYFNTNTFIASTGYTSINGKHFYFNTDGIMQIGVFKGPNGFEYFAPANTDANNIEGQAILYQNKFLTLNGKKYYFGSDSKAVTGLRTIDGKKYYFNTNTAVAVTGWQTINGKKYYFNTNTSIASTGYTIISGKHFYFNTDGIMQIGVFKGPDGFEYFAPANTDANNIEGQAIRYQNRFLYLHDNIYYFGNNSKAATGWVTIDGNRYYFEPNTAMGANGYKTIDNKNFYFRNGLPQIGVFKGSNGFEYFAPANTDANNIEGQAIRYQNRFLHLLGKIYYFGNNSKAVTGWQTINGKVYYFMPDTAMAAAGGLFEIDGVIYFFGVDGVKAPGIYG

[4] = system: CaCo-2 cells; assay: CaCo-2 monolayer integrity / trans-epithelial resistance after TcdB; type: cell-based, human
[5] = system: C. difficile; type: in vivo, mice
[6] = system: C. clostridioforme ATCC25537; assay: organism not typed; type: cell-based
[7] = system: C. sporogenes ATCC3584; assay: microbe, parasite or virus in culture; type: cell-based; details: Clostridium sporogenes
[8] = rats; cited from earlier work
[9] = target: T2, TcdB (Clostridioides difficile, UniProt P18177); assay: cell-based; set-up: species or system C. difficile; details: for inhibition at 40 µM: IMR-90, read-out: inhibition of TcdB-induced cell rounding
Target sequence in this assay (P18177 2-2366 limits assumed): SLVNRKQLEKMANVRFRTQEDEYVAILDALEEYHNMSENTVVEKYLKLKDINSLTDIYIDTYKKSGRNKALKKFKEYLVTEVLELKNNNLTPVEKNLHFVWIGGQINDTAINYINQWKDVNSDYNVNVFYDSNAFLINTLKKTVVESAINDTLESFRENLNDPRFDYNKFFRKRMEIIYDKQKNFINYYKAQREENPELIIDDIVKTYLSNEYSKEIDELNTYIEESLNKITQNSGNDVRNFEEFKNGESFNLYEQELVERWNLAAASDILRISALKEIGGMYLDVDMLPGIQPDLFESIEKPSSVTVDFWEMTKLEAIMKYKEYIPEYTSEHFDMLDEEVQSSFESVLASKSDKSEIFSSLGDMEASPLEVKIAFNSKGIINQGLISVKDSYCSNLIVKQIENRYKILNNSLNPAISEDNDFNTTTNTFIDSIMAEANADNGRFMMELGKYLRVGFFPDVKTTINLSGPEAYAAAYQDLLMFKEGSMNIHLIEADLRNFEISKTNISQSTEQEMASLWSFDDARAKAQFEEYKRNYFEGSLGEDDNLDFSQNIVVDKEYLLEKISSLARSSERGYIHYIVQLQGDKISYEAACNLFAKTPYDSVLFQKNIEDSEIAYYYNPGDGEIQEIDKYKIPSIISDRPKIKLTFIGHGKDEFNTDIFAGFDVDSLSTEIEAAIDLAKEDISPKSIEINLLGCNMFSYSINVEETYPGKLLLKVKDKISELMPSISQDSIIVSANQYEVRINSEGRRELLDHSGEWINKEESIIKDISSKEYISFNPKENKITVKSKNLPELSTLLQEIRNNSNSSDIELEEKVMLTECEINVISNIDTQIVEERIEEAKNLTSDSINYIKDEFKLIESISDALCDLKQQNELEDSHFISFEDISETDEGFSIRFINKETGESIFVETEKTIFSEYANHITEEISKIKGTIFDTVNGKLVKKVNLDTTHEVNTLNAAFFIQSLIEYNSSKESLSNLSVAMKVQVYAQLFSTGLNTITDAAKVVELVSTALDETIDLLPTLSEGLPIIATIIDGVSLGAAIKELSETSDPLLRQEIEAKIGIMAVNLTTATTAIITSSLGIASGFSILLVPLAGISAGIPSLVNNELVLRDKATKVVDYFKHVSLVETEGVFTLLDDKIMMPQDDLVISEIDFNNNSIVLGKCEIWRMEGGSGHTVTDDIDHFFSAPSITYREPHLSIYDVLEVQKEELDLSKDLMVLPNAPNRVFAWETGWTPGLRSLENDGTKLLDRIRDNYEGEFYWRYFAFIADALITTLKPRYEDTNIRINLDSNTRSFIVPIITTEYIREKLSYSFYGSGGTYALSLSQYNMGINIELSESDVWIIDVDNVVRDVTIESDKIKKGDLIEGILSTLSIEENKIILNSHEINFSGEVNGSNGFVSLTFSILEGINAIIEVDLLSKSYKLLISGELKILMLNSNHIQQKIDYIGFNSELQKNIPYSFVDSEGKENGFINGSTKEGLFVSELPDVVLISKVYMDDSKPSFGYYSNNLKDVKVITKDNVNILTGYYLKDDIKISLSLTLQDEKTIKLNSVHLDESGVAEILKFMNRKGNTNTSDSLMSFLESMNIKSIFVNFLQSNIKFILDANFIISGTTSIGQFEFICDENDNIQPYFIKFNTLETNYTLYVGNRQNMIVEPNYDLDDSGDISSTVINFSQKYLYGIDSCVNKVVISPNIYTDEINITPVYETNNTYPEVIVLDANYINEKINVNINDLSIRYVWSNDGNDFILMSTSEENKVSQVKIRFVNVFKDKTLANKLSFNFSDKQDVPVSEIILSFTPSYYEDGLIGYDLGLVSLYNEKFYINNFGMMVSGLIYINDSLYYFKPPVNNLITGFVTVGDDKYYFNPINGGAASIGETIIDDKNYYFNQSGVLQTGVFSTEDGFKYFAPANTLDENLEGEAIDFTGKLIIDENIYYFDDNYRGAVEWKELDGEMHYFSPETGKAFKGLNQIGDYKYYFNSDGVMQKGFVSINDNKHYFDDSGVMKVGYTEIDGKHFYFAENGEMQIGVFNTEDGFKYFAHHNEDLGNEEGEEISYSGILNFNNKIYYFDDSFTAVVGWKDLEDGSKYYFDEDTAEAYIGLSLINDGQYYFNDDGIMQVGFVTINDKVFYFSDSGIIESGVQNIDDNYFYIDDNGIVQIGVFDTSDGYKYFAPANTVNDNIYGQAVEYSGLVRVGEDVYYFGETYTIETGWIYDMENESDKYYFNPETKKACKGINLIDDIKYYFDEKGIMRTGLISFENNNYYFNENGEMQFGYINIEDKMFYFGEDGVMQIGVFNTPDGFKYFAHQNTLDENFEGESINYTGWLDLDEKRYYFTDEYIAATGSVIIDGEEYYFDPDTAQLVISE

[10] = system: C. difficile; assay: microbe, parasite or virus in culture; type: cell-based; remark: listed apart in the source
[11] = system: Rac1 glucosylation; assay: Intracellular Rac1 glucosylation Western blot; type: cell-based, human; details: IMR-90 cells, niclosamide 15 min then TcdB, harvested 1 h later
Protocol: (§1) FIG. 2. […] (a) Representative Western blot image for intracellular Rac1 glucosylation. […] Cells were harvested in lysis buffer 1 h later and processed for Western blot as described in Online Methods. […] (b) In vitro GTD glucosyltransferase assay. […] Activity was measured as described in the Online Methods. (c) In vitro auto-processing assay.

[12] = target: T3, TcdB glucosyltransferase domain (GTD) (Clostridioides difficile, UniProt P18177); assay: In vitro GTD glucosyltransferase assay; type: biochemical, C. difficile; details: up to 10 μM niclosamide, n=3
T3 construct: The TcdB glucosyltransferase domain (GTD); made in house
Protocol: as §1
For each reaction containing 10 nM GTD and 25 μM UDP-glucose, compound was added (1% final DMSO) and preincubated 30 minutes, followed by addition of gstRac1 to 0.8 μM. The reaction was stopped after a 60 min reaction time with an equal volume of Laemmli loading buffer plus β-mercaptoethanol (Bio-Rad, Mississauga. ON), heated to 90° C. before immediately loading on an SDS polyacrylamide gel. […]
Reactions were started with the simultaneous addition of 2.5 μl each of GST-Rac1 (20 μM final) and a mixture of 0.5 μCi of UDP-[6 ^3H]-glucose (0.5 μM final) and cold UDP-glucose (19.5 μM final). […] The beads were allowed to settle overnight at room temperature to increase the signal to background ratio before being analyzed on a TopCount NXT scintillation counter (PerkinElmer). Results were analyzed using GraphPad Prism 5.0.
Experiments were performed as per the manufacturer's instructions. […] Results were analyzed with SoftMax Pro 6.2.2 and GraphPad Prism 5.0.

[13] = target: T4, TcdB APD domain (Clostridioides difficile, UniProt P18177); assay: In vitro inositol hexakisphosphate-induced autoprocessing (cysteine protease) assay; type: biochemical, C. difficile; details: up to 10 μM niclosamide
T4 construct: Cell lysates were prepared as described for full-length TcdB; made in house; host or cells: Bacillus megaterium
From the text: Cleavage was visualized by electrophoresing the samples on SDS polyacrylamide gels and staining with Coomassie Blue R250.

[14] = system: IMR90 cells; assay: Lysotracker assay, endosomal pH neutralization; type: cell-based, human; details: pre-treating cells
Protocol: Endosomal pH neutralization was assayed essentially as described by Slater et al. (55); IMR90 cells in complete EMEM were plated at 14,000 cells/well (˜95% confluency). After 24 h the media was changed to SFM for 60 minutes, then compound was added to 40 μM and incubated at 37° C. for 2 h. Lysotracker red DND-99 and Hoechst (Life Technologies) were added to 0.1 μM and 1 μM, respectively, and incubated for 60 minutes. Excess dye was removed by media change and the fluorescence at ex/em 574/594 was read on an Envision plate reader (Perkin Elmer). Representative cell images were taken using a Zeiss Axiovert fluorescence microscope using DAPI and Texas Red filters to visualize the Hoechst and Lysotracker staining, respectively.

[15] = target: T2, TcdB
Target sequence in this assay (P18177 2-2366 limits assumed): as above
Protocol: Loss of cellular ATP as a marker of high dose (1 nM) TcdB toxicity was measured as described for the Arrayscan screen protocol, except that CellTiter-Glo reagent (Promega, Madison, Wis.) was added to the cells 3 h post toxin challenge, and luminescence was recorded on a Spectramax M5 plate reader.

[16] = target: T2, TcdB; details: mammalian cells expressing all three known receptors
Target sequence in this assay (P18177 2-2366 limits assumed): as above
Protocol: TcdB binding to Vero cells was assessed as described earlier with minor modifications(57). […] Mixtures were then added to confluent cultures of pre-chilled Vero cells and plates were incubated on ice for 45 min. Plates were then washed 3 times with cold PBS and harvested by scraping. Membranes were isolated, and samples analyzed by Western blot as previously described (57).

[17] = target: T2, TcdB; remark: listed apart in the source
Protocol: TcdB protein was diluted in phosphate buffer (100 mM KPO4, 150 mM NaCl, pH 7) containing 5×SYPRO Orange (Invitrogen, Burlington, ON) and a serial dilution of test compound. A Biorad CFX96 qRT-PCR thermocycler was used to establish a temperature gradient from 15° C. to 95° C. in 30 s increments, while simultaneously recording the increase in SYPRO Orange fluorescence as a consequence of binding to hydrophobic regions exposed on unfolded proteins. The Bio-Rad CFX Manager 3.1 software was used to integrate the fluorescence curves to calculate the melting point.

[18] = target: T5, CDT (Clostridioides difficile, UniProt A0A9R0BM17+A0A9R0BM20); assay: Inhibition of C. difficile toxin-induced cytotoxicity, CDT (actin depolymerization); details: same doses that protect cells from TcdB
T5 sequence (A0A9R0BM17 210-876): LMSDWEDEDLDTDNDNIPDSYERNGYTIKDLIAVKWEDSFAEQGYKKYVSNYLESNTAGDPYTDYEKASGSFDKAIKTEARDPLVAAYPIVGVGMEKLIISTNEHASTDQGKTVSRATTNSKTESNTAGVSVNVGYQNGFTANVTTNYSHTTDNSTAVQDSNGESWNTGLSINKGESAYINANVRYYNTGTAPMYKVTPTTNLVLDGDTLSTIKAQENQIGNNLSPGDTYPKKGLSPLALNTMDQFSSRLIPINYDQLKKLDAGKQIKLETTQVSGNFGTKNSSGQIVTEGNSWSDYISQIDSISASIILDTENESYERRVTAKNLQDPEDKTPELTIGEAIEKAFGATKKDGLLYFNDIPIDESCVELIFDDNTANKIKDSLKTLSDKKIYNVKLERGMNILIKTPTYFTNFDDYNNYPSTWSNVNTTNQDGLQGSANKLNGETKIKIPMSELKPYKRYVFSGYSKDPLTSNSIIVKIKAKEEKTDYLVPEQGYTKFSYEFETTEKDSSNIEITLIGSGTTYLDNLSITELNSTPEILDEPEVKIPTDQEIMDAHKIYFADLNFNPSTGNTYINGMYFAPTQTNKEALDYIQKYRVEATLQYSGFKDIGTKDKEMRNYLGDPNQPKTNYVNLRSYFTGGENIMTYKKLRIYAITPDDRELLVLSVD
T5 sequence (A0A9R0BM20 44-463): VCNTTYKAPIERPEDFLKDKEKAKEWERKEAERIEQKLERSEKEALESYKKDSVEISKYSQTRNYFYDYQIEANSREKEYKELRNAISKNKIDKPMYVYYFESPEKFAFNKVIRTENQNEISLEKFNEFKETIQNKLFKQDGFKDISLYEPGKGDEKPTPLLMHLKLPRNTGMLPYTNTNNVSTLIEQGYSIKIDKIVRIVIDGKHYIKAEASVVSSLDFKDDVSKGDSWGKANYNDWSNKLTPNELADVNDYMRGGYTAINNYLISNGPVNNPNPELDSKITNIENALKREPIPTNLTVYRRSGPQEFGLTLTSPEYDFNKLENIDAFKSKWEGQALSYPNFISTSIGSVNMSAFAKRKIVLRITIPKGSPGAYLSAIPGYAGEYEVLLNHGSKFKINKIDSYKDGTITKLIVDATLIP
Protocol: Cells were stained with 1 uM Hoechst for 30 min, then combined photos were taken for each compound at a concentration corresponding to maximum protection from TcdB using a 10× objective and appropriate filter sets for Hoechst and Alexa488 fluorescence (Zeiss).

Compound: CCc1c(Cl)c(O)c(Cl)c(O)c1C(=O)O[C@H]1[C@H](O)[C@H](OC)[C@H](OC/C2=C\C=C\C[C@H](O)/C(C)=C/[C@H](CC)[C@@H](O[C@@H]3OC(C)(C)[C@@H](OC(=O)C(C)C)[C@H](O)[C@@H]3O)/C(C)=C/C(C)=C/C[C@@H]([C@@H](C)O)OC2=O)O[C@@H]1C [Fidaxomicin]
- MIC [1]: 0.06 μg/mL and 0.06^4 μg/mL
- MIC ([1]; Clostridioides difficile): 0.12 µg/mL (≈ 0.113 µM)

Compound: O=C(Nc1ccc([N+](=O)[O-])cc1Cl)c1cc(Cl)ccc1O [NEN, niclosamide ethanolamine]
- protection against TcdB derived from hypervirulent strains [2]: protected
- IC50 [3]: 0.55 ± 0.08 µM
- TEER assay, dose dependence ([4]; Caco-2 cell monolayers): dose-dependently protects
- survival of recurrence ([5]; NEN 50 mg/kg): all NEN-treated mice survived recurrence
- survival from C. difficile challenge ([5]; NEN 50 mg/kg oral gavage, vancomycin 0.5 mg/mL in drinking water, more than 60% of control moribund): all mice in the NEN group survived
- diarrhea scores at recurrence ([5]; mouse, in vivo): less severe diarrhea scores
- MIC [6]: > 19 µg/mL
- MIC [7]: > 19 µg/mL
- median oral lethal dose (LD50) [8]: 10,000 mg/kg body weight

Compound: Cc1cc(C(C#N)c2ccc(Cl)cc2)c(Cl)cc1NC(=O)c1cc(I)cc(I)c1O (stereo not shown) [closantel]
- inhibition of TcdB-induced cell rounding ([9]; high-throughput screen, libraries screened at 40 μM, IMR90 cells): 60%

Compound: O=C(Nc1cc(Cl)cc(Cl)c1O)c1c(O)c(Cl)cc(Cl)c1Cl [oxyclozanide]
- inhibition at 40 µM [9]: 43%

Compound: CN[C@H](CC(C)C)C(=O)N[C@H]1C(=O)N[C@@H](CC(N)=O)C(=O)N[C@H]2C(=O)N[C@H]3C(=O)N[C@H](C(=O)N[C@H](C(=O)O)c4cc(O)cc(O)c4-c4cc3ccc4O)[C@H](O)c3ccc(c(Cl)c3)Oc3cc2cc(c3O[C@@H]2O[C@H](CO)[C@@H](O)[C@H](O)[C@H]2O[C@H]2C[C@](C)(N)[C@H](O)[C@H](C)O2)Oc2ccc(cc2Cl)[C@H]1O [Vancomycin]
- MIC [10]: 2 µg/mL (≈ 1.38 µM)
- MIC ([10]; Clostridioides difficile): 1 µg/mL (≈ 0.69 µM)
- MIC [6]: 4 µg/mL (≈ 2.76 µM)
- MIC [7]: 8 µg/mL (≈ 5.52 µM)

Compound: O=C(Nc1ccc([N+](=O)[O-])cc1Cl)c1cc(Cl)ccc1O [niclosamide]
- inhibition at 40 µM [9]: 71%
- Protection from TcdB-induced cell-rounding (extent) ([9]; human IMR-90 fibroblasts co-incubated with niclosamide and TcdB): complete
- protection from TcdA-induced cell rounding [3]: completely protected
- IC50 [3]: 0.5 ± 0.1 µM
- TcdB-induced reduction in Phalloidin staining ([4]; Caco-2 cells): prevented
- TcdB-induced disruption of monolayer integrity ([4]; co-treatment with TcdB, confluent CaCo-2 monolayer): prevented
- Rac1 glucosylation in cells [11]: dose-dependently inhibits
- inhibition of GTD enzymatic activity in vitro [12]: no direct inhibition
- Release of GTD by the APD domain (autoprocessing) [13]: unaffected
- Lysotracker fluorescent staining (endosomal pH) [14]: reduces Lysotracker fluorescent staining
- TcdB-induced necrosis [15]: inhibited
- TcdB binding to the cell surface [16]: did not affect
- direct binding interaction with TcdB (thermal stability) [17]: no evidence for a direct binding interaction
- protection from CDT-induced damage (depolymerization of the actin cytoskeleton) [18]: completely protected
